Laboratory results as given in patent US20090018106A1, “INTRAVENOUS FORMULATIONS OF PYRIDOXAL 5'- PHOSPHATE AND METHOD OF PREPARATION” (Medicure International Inc., priority 2005, published 2009).

Legend:
clinical = test: clinical; parameters: species or system human; conditions: in vivo; for AUC: AUC0-τ; for half-life: T1/2 el
Experimental: Data sets analyzed—Six (6) healthy, adult non-smokers were administered intravenously a single daily dose of 10 mg/kb of P5P for four consecutive days and completed the study. In accordance with the study protocol, data from all subjects who completed the study were used for pharmacokinetic and statistical analysis.
Analytical Methods—Plasma and urine samples were used for analysis. P5P, PAL, and PA levels were determined by HPLC/FLD. The quantitation level was 5 ng/mL for plasma and 100 ng/mL for urine. The sample analysis calibration curve range was 5 ng/mL to 5000 ng/mL for plasma and 100 ng/mL to 50,000 ng/mL for urine.
When the difference exceeded this time limit, the actual sampling times (rounded off to three decimal digits) were used to calculate pharmacokinetic parameters except for pre-dose samples, which were always reported as zero (0.000), regardless of time deviations. Scheduled sampling times are presented in concentration tables and graphs of the statistical section of the report.
Pharmacokinetic analyses (non-compartmental and compartmental) were performed at SFBC Anapharm. Pharmacokinetic parameters were calculated using either Bioequiv (release 3.40) or WinNonLin™ (release 4.0.1). Bioequiv is proprietary software developed and tested for bioequivalence studies at SFBC Anapharm. This software performs non-compartmental analyses of pharmacokinetic parameters and statistical analyses (via SAS release 6.12) according to FDA, HPFB and BMEA guidance.
The mean, standard deviation (SD), coefficient of variation (CV (%)) and range (min. and max.) were calculated for plasma concentrations of P5P (both baseline corrected and uncorrected), PAL and PA for each sampling time and treatment.
For the non-compartmental pharmacokinetic analyses the mean. SD, CV (%). range (min. and max.), median and interquartile range were calculated for the AUC0-t, (ng·h/mL), AUC0-t (ng·h/mL), AUC0-inf (ng·h/mL), Cmax (ng/mL), Cmin (ng/mL), Cavg (ng/mL), Fl(%), Ae0-t (ng), AUC^t/inf (%), Tmax (h), T1/2 el (h), Kel (h^−1), TLIN (h), LQCT (h). CLT (L/h), CLR (L/h). Vβ (L), MRT (h) and Accumulation ratio. The calculation of these pharmacokinetic parameters is explained below.
Cmax the maximum observed concentration, and Tmax, the time to reach that peak concentration, were determined for each subject and for each analyte. For Day 4 data, Cmin the minimum observed concentration was determined for each subject and for each analyte and Cavg was calculated as AUC0-τ/τ.
Percentage of Fluctuation—For Day 4 data, the peak-through percentage of fluctuation over one dosing interval (Fl(%)) was calculated as: 100*([Cmax−Cmin]/Cavg)
Half-Life and Elimination Rate Constant—To calculate the elimination rate constant (Kel), regression analyses were performed on the natural log(Ln) of plasma concentration values (y) versus time (x). Calculations were made between a time point where log-linear elimination phase begins (TLIN) and the time at which the last concentration above the limit of quantification (LQCT) occurred. The Kel was taken as the slope multiplied by (−1) and the apparent half-life (T1/2 el) as (In 2)/Kel.
TLIN and LQCT—TLIN, the time point where In-linear Kel calculation begins, and LQCT, the sampling time of the last quantifiable concentration used to estimate the Kel were determined by the scientist (according to SFBC Anapharm's standard operating procedures) for each subject and for each treatment. At least 4 non-zero observations during the terminal elimination phase were used to calculate the Kel. A minimum of 3 observations were used if less than 4 observations were available.
Areas Under the Concentration-Time Curves—AUC0-t was calculated using the linear trapezoidal rule from time 0.000 h until the last non-zero concentration.
AUC0-τ was calculated using the linear trapezoidal rule from time 0.000 h until 24.0 h.
The AUC0-inf was calculated as: […]

[1] = Cumulative urinary excretion after single intravenous dose of P5P (Example Three); type: in vivo, human; conditions: for Cumulative Urinary Excretion as Percent of the Dose: Percent (CV %)
Experimental: P5P, pyridoxal, and 4-pyridoxic acid were evaluated in both plasma and urine over a 24 hour interval following either intravenous or oral dosing. The results are set out below in Tables 2 and 3. The urinary excretion of the unchanged P5P is negligible. Less than 0.5% of the administered dose was found as P5P in the urine (Table 10). Similarly, very little of the dose was excreted in urine as PAL, between approximately 2 to 3% of the total dose (Table 10). PA represented the largest amounts found in urine. Over a 24-hour interval, between 30% and 52% of the given dose was excreted in urine as 4-pyridoxic acid.

[2] = Group 1, dose of P5P 1 mg/1 kg, single iv
[3] = Group 3, P5P 10 mg/kg single iv
[4] = Group 4, dose of P5P, single iv

Compound	Tmax (clinical; human, iv, 10 mg/kg) [h]	AUC(0-inf) (clinical; human, iv, 10 mg/kg, AUC0-inf) [ng·h/mL]	AUC(0-t) (clinical; human, iv, 10 mg/kg, AUC0-t) [ng·h/mL]	AUC (clinical; human, iv, 10 mg/kg) [ng·h/mL]	Cmax (clinical; human, iv, 10 mg/kg, Cmax) [ng/mL]	MRT (clinical; human, iv, 10 mg/kg) [h]	half-life (clinical; human, iv, 10 mg/kg) [h]	Tmax (clinical; human, iv, 10 mg/kg, Tmax) [h]	ANOVA, difference between treatment days (clinical)	Cumulative Urinary Excretion as Percent of the Dose [1, 2]	Cumulative Urinary Excretion as Percent of the Dose ([1]; Group 2, P5P 5 mg/kg single iv)	Cumulative Urinary Excretion as Percent of the Dose [1, 3]	Cumulative Urinary Excretion as Percent of the Dose [1, 4]	Ratio of LS Means, AUC0-inf (clinical; human) [%]	Ratio of LS Means, AUC0-t (clinical; human) [%]	Ratio of LS Means, Cmax (clinical; human) [%]	AUC(0-inf) (clinical; human, iv, 10 mg/kg) [ng·h/mL]	AUC(0-t) (clinical; human, iv, 10 mg/kg) [ng·h/mL]	Cmax (clinical; human, iv, 10 mg/kg) [ng/mL]	other results
Cc1ncc(COP(=O)(O)O)c(C=O)c1O [P5P, Pyridoxal 5′-phosphate, reference compound]	0.081	283000	278000	303000	191000	3.4	5.14	0.089	did not detect any statistically significant difference	0.06 (161) Percent	0.08 (96) Percent	0.02 (167) Percent	0.26 (73) Percent	–	–	–	–	–	–	Tmax (clinical; human, Tmax): 0.067 h; AUC0-τ (clinical; human, iv, 10 mg/kg): 303393.72 ng·h/mL; clearance (clinical; human, iv, 10 mg/kg, CLτ (text: CLT, total body clearance)): 42.5 mL/min; part of the administered dose found in urine ([1]; single iv P5P 1-20 mg/kg, 24-hour interval): Less than 0.5%
Cc1ncc(CO)c(C(=O)O)c1O [PA, 4-pyridoxic acid]	0.528	21200	20700	21200	4360	3.85	2.3	0.611	did not detect any statistically significant difference	52.25 (28) Percent	47.18 (32) Percent	29.78 (32) Percent	40.55 (54) Percent	99.47	99.75	97.17	21097.95	20704.80	4238	–
Cc1ncc(CO)c(C=O)c1O [PAL, pyridoxal]	0.691	22400	22300	29700	7630	4.06	3.4	0.525	–	1.93 (101) Percent	3.00 (37) Percent	2.73 (20) Percent	2.46 (33) Percent	133.70	132.83	101.45	30077.45	29682.94	6902	ANOVA, difference between treatment days (clinical; human): statistically significant difference between treatment days was detected using ANOVA for In-transformed AUC0-t, and AUC0-inf but not for Cmax
